Data reported in PubChem BioAssay (NCI).
“And” between values parts separate entries of the source, which are not always exact repeats. Equal entries are not always repeated.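 Each compound was tested at five concentrations against cells in 96-well plates for 48 hours. The concentration for 50% growth inhibition is given as GI50. At the TGI there is no net growth.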

Tests used:
Test in all cases: NCI tumour cell line growth inhibition, 48 h
SF-295 CNS = system: SF-295 CNS
TK-10 renal = system: TK-10 renal
HCT-15 colon = system: HCT-15 colon
HOP-62 NSCLC = system: HOP-62 NSCLC
LOX IMVI melanoma = system: LOX IMVI melanoma
NCI-H226 lung = system: NCI-H226 lung
HT29 colon = system: HT29 colon
RXF 393 renal = system: RXF 393 renal
OVCAR-8 ovarian = system: OVCAR-8 ovarian
HL-60(TB) leukemia = system: HL-60(TB) leukemia

Structure (SMILES)	TGI (SF-295 CNS)	TGI (TK-10 renal)	TGI (HCT-15 colon)	TGI (HOP-62 NSCLC)	TGI (LOX IMVI melanoma)	TGI (NCI-H226 lung)	TGI (HT29 colon)	TGI (RXF 393 renal)	TGI (OVCAR-8 ovarian)	TGI (HL-60(TB) leukemia)	GI50 (SF-295 CNS)	GI50 (TK-10 renal)	GI50 (HCT-15 colon)	GI50 (HOP-62 NSCLC)	GI50 (LOX IMVI melanoma)	GI50 (NCI-H226 lung)	GI50 (HT29 colon)	GI50 (RXF 393 renal)	GI50 (OVCAR-8 ovarian)	GI50 (HL-60(TB) leukemia)
CC(=O)/C(=C/c1ccccc1F)C(=O)c1ccccc1	> 100 µM	80.9 µM	> 100 µM	> 100 µM	40.8 µM	> 100 µM	> 100 µM	46 µM	51 µM	> 100 µM	–	–	–	–	–	–	–	–	–	–
COC(=O)C1(C)Cc2cc(OC(C)=O)c(OC(C)=O)cc2N1 (stereo unspecified)	> 100 µM	44.1 µM	12.9 µM	> 100 µM	19.7 µM	60 µM	56.7 µM	8.48 µM	70.2 µM	> 24.2 µM	67.5 µM	11.1 µM	2.64 µM	> 100 µM	5.06 µM	14.8 µM	13 µM	2.34 µM	14.4 µM	2.42 µM
CC(C)(C)c1cc(C=C(C#N)C#N)cc(C(C)(C)C)c1O	1.23 µM and 3.4 µM	–	14.1 µM and 19.9 µM	6.87 µM and 1.65 µM	3.92 µM and 10.8 µM	1.51 µM and 14.8 µM	7.81 µM and 10.6 µM	14.3 µM and 10.5 µM	23.6 µM and 48.1 µM	2.48 µM	0.284 µM	0.336 µM	–	–	0.375 µM	0.371 µM	0.33 µM	0.482 µM	0.355 µM	–
Cc1cc(N(CCC#N)CCC#N)ccc1/C=C(\NC(=O)/C=C/c1ccccc1)C(=O)NN	> 95.6 µM	> 76.8 µM	> 100 µM	> 90.3 µM	> 100 µM	> 90.2 µM	> 100 µM	> 92.3 µM	> 100 µM	> 100 µM	–	–	–	–	–	–	–	–	–	–
CNC(=O)c1nn(C)c2c1C(C)(C)Cc1cnc(Nc3ccc(N4CCN(C)CC4)cc3)nc1-2	> 10 µM	> 10 µM	> 10 µM	9.84 µM	> 10 µM	> 8.57 µM	> 10 µM	> 4.5 µM	> 10 µM	> 10 µM	1.09 µM	0.116 µM	0.337 µM	0.435 µM	0.606 µM	0.958 µM	0.94 µM	0.343 µM	3.17 µM	0.695 µM
CCNC(=O)c1noc(-c2cc(C(C)C)c(O)cc2O)c1-c1ccc(CN2CCOCC2)cc1	11.2 µM	14.8 µM	19.9 µM	29.4 µM	0.0765 µM	26.6 µM	2.09 µM	17.8 µM	28.9 µM	1.17 µM	0.0287 µM	0.0233 µM	0.0388 µM	0.0532 µM	0.0159 µM	0.0409 µM	0.0343 µM	0.0257 µM	0.0423 µM	0.024 µM
CSC(=S)N/N=C/c1nccc2ccccc12	8.54 µM	62.9 µM	40 µM	10.1 µM	13.1 µM	12 µM	> 67.5 µM	6.01 µM	4.96 µM	6.69 µM	–	–	–	–	–	–	–	–	–	–
O=C(/C=C/c1ccccc1)c1ccc(NCc2nc3ccccc3[nH]2)cc1	13.1 µM	24 µM	15.9 µM	23.3 µM	3.76 µM	16.8 µM	7.73 µM	16.8 µM	14.9 µM	> 22.3 µM	–	–	–	–	–	–	–	–	–	–
C=CC(OCC)(OCC)OCC	> 100 µM	> 100 µM	> 100 µM	> 100 µM	> 100 µM	> 100 µM	> 100 µM	> 100 µM	> 100 µM	> 100 µM	–	–	–	–	–	–	–	–	–	–
COc1ccc(OC)c(Cn2cc3c(c2-c2ccccc2)CCc2cnoc2-3)c1	> 100 µM	> 100 µM	> 100 µM	> 100 µM	> 100 µM	> 100 µM	> 100 µM	> 100 µM	> 100 µM	6.52 µM	3.19 µM	8.01 µM	4 µM	9.13 µM	4.92 µM	40.8 µM	3.15 µM	6.12 µM	19.2 µM	2.03 µM
COc1cc(NCCCCCCCNC(C)C)c2nccc(C)c2c1	29.6 µM	32.7 µM	27.3 µM	27.6 µM	21.5 µM	34.3 µM	16.4 µM	33.7 µM	33.5 µM	23.9 µM	14.1 µM	17.1 µM	12.2 µM	13.8 µM	7.03 µM	14.6 µM	4.29 µM	15.4 µM	15.2 µM	6.94 µM
O=C(N[C@@H](C[Se][Se]C[C@H](NC(=O)c1ccc(Br)cc1F)C(=O)O)C(=O)O)c1ccc(Br)cc1F	> 100 µM	> 100 µM	> 100 µM	> 100 µM	> 100 µM	> 100 µM	> 100 µM	> 100 µM	> 100 µM	> 100 µM	> 100 µM	> 100 µM	> 100 µM	> 100 µM	> 100 µM	> 100 µM	> 100 µM	> 100 µM	> 100 µM	> 100 µM
O=C1OCC2=C1C(c1ccccc1)c1cc3c(cc1N2CCO)OCO3 (stereo unspecified)	3.53 µM	> 50 µM	> 50 µM	> 50 µM	> 50 µM	> 50 µM	> 50 µM	35.7 µM	> 50 µM	> 50 µM	1.25 µM	32.7 µM	2.96 µM	4.08 µM	7 µM	> 50 µM	1.72 µM	8.03 µM	12.1 µM	3.46 µM
COC(=O)C1(C(=O)OC)CC(=O)c2cc3c(cc2-c2c(cc(OC)c(OC)c2OC)C1)OCO3	> 211 µM	> 211 µM	> 211 µM	> 211 µM	> 211 µM	> 211 µM	> 211 µM	> 211 µM	> 211 µM	> 211 µM	–	–	–	–	–	–	–	–	–	–
NC(=S)NN/C=C(\C=Nc1ccccc1)[N+](=O)[O-]	> 100 µM	> 100 µM	> 100 µM	> 100 µM	> 100 µM	> 100 µM	> 100 µM	> 100 µM	> 100 µM	> 100 µM	–	–	–	–	–	–	–	–	–	–
O=C(O)c1ccccc1/C=N/N=C1c2ccccc2-c2ccccc21	61 µM	> 100 µM	> 100 µM	> 100 µM	> 100 µM	41.6 µM	> 100 µM	75.8 µM	> 100 µM	80.8 µM	–	–	–	–	–	–	–	–	–	–
